# Patent publication US20060140863A1, “Production of a dye agent for colouring cells in the human or animal body” (Fluoron GMBH, priority 2002, published 2006)
# Where two headings read alike, the source gives them in different places.
# Key:
# [1] = known from Solomon et al 1989 and Veckener et al 2002 (rabbit eyes); cited from earlier work
# [2] = Cahen 1964 and BLURHEX product information; cited from earlier work
# [3] = Cytotoxicity, general statement; assay type: cell-based; conditions: biocompatible solution according to the invention, in comparison with trypan blue
# Text: Trypan blue is a cytotoxic substance, as is known for example from Solomon K D et al: Protective effect of the anterior lens capsule during extra capsular cataract extraction, OPHTHALMOLOGY, Vol 96, No 5, May 1989, 591-597, and Veckener M et al: Ocular toxicity study of trypan blue injected into the vitreous cavity of rabbit eyes, Graefe's Arch. Clin. Ex. Ophthalmol. (2002) 239:698-704. When using trypan blue therefore complete flushing out in particular of the region of the eye in which the trypan blue was used as a dye agent is required immediately after the cataract operation in order to prevent it from remaining in the body or in the eye for a prolonged period of time.
# ARPE-19-cells = assay: Cytotoxicity by protein content of treated cell cultures vs untreated controls (growth inhibition); assay type: cell-based; conditions: differing levels of concentration, 68 to 72 hours in an incubator, protein content vs untreated control
# Text: (§1) The vitality of the cells and a deduced cytotoxicity is quantitatively determined by determining the protein content of the treated cell cultures in comparison with untreated control cultures. The protein content is ascertained by a colorimetric procedure with a standard process.
# (§2) It is found in this respect that cytotoxicity of a significant level corresponding to growth inhibition of more than 30% is not present.
# mouse cells L 929 = assay: as above; assay type: cell-based; conditions: L 929 cells, differing levels of concentration, 68 to 72 hours in an incubator, protein content vs untreated control
# Text: as §1, §2
Molecule,cytotoxicity [1],teratogenic or mutagenic action [2],cytotoxicity [3],growth inhibition (cytotoxicity of a significant level = more than 30%) (ARPE-19-cells),growth inhibition (cytotoxicity of a significant level = more than 30%) (mouse cells L 929)
"Cc1cc(-c2ccc(/N=N/c3c(S(=O)(=O)O)cc4cc(S(=O)(=O)O)cc(N)c4c3O)c(C)c2)ccc1/N=N/c1c(S(=O)(=O)O)cc2cc(S(=O)(=O)O)cc(N)c2c1O [Trypan blue, trypan blue]",cytotoxic,teratogenic or mutagenic action,,,
brilliant blue R,,,does not have any cytotoxicity,,
CCN(CC)c1ccc(C(=C2C=CC(=[N+](CC)CC)C=C2)c2cc(O)c(S(=O)(=O)[O-])cc2S(=O)(=O)[O-])cc1.CCN(CC)c1ccc(C(=C2C=CC(=[N+](CC)CC)C=C2)c2cc(O)c(S(=O)(=O)[O-])cc2S(=O)(=O)[O-])cc1.[Ca+2] [patent blue V],,,does not have any cytotoxicity,≤ 30%,≤ 30%
